Data: patent US12662491B2 (Redona Therapeutics, Inc., priority 2020, dated 2026)
Like-named read-outs stand apart in the source and are kept apart here.

Target: T1, Zcchc11 enzyme (Homo sapiens, UniProt Q5TAX3)
T1 construct: made in house; host or cells: HEK293 cells (Zcchc11); E. coli Rosetta II (LIN28A)
T1 sequence (Q5TAX3 212-1420): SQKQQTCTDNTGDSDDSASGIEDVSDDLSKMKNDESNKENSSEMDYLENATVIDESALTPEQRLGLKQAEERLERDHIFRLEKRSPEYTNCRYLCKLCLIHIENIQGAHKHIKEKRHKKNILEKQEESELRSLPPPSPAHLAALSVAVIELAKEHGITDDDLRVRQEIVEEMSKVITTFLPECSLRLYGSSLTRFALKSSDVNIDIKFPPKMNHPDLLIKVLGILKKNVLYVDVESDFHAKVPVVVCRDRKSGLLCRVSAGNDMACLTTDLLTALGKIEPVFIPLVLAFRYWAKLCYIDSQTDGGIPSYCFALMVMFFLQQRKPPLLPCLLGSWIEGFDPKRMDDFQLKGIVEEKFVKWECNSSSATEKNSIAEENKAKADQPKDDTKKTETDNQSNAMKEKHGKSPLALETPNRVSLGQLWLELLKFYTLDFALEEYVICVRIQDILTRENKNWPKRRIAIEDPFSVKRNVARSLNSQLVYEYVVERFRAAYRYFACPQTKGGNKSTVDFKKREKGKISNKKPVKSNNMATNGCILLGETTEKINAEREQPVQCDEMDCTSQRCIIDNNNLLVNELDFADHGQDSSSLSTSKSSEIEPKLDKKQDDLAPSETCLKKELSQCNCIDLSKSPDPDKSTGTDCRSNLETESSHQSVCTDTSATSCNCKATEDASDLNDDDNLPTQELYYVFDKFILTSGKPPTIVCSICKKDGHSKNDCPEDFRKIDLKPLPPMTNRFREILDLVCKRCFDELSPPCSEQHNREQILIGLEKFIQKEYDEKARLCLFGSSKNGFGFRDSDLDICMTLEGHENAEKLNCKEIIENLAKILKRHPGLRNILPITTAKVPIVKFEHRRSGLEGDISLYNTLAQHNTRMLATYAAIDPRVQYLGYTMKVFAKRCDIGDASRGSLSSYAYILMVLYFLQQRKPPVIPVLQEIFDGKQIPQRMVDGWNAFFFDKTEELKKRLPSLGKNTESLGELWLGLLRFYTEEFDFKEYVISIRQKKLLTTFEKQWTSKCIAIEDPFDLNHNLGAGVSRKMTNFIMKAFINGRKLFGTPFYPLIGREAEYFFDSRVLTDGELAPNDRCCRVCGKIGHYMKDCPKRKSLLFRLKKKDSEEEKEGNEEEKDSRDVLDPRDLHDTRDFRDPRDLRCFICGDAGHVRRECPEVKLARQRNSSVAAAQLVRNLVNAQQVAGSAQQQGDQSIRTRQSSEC
Assay: TUTase assay (Zcchc11 assay, Lin28a-dependent polyuridylation of pre-let-7)
Format: biochemical
Conditions: read-out: Potency Lin28a-dep Z11 IC50
Summary of the method: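 LIN28A (10 nM) in pH 7.3 HEPES/KCl/MgCl2/DTT buffer was mixed with serially diluted compound, then 0.2 nM truncated human Zcchc11 and 2 nM labeled pre-let-7 were added for 30 min at room temperature. UTP (5 uM) and quench probe (4 nM) then started the reaction. Linear early rates gave IC50 values.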

[1] = Lin28a-dependent Zcchc11 (Z11) TUTase activity
[2] = Lin28a-dependent Zcchc11 (Z11) TUTase assay
[3] = LIN28A 10 nM, Zcchc11 0.2 nM, 5′-fluorescein pre-let-7 miRNA 2 nM, UTP 5 uM, room temperature, 30 minutes pre-incubation

IC50 [1] [nM] | IC50 [2] [nM] | other results | Compound
≤ 1000 |  |  | COc1ccc(F)c(OC[C@H]2C[C@H]3C[C@H]3N2c2cc3c(cc2Cl)c(=O)c(C(=O)O)cn3-c2ccc(N(C)C)nc2)n1 [Compound 266, 6-chloro-1-(6-(dimethyl-amino)pyridin-3-yl)-7-((1R,3R,5R)-3-(((3-fluoro-6-methoxy-pyridin-2-yl)oxy)methyl)-2-azabicyclo [3.1.0]hexan-2-yl)-4-oxo-1,4-dihydro-quinoline-3-carboxylic acid]
 | ≤ 1000 |  | O=C(O)c1cn(-c2ccc(N3CCC3)nc2)c2cc(N3CCC[C@@H]3COc3ncccc3Cl)c(Cl)cc2c1=O [Example 422, (R)-1-(6-(azetidin-1-yl)pyridin-3-yl)-6-chloro-7-(2-(((3-chloropyridin-2-yl)oxy)methyl)pyrrolidin-1-yl)-4-oxo-1,4-dihydroquinoline-3-carboxylic acid]
1000 to 10000 |  |  | O=C(O)c1cn(-c2ccc(O)cc2F)c2c(F)c(N3CCC[C@@H]3COc3ccccn3)c(F)cc2c1=O [Compound 80, (R)-6,8-difluoro-1-(2-fluoro-4-hydroxy-phenyl)-4-oxo-7-(2-((pyridin-2-yloxy)methyl)pyrrolidin-1-yl)-1,4-dihydro-quinoline-3-carboxylic acid]
> 50000 |  |  | O=C(O)c1cn(-c2cnccn2)c2cc(N3C(=O)CC[C@@H]3COc3ccccn3)c(Cl)cc2c1=O [Compound 286, (R)-6-chloro-4-oxo-7-(2-oxo-5-((pyridin-2-yloxy)methyl)pyrrolidin-1-yl)-1-(pyrazin-2-yl)-1,4-dihydro-quinoline-3-carboxylic acid]
 | ≤ 1000 |  | CN(C)C1CN(c2cc(-n3cc(C(=O)O)c(=O)c4cc(Cl)c(N5CCC[C@@H]5COc5ccccn5)cc43)ccn2)C1 [Example 564, (R)-6-chloro-1-(2-(3-(dimethylamino)azetidin-1-yl)pyridin-4-yl)-4-oxo-7-(2-((pyridin-2-yloxy)methyl)pyrrolidin-1-yl)-1,4-dihydroquinoline-3-carboxylic acid]
 |  | IC50 [3]: ≤ 1000 nM | CN(C)C1CN(c2ccc(-n3cc(C(=O)O)c(=O)c4cc(C#N)c(N5C6CCC5(COc5ncccc5F)CC6)cc43)cn2)C1 [Example 42, 6-cyano-1-(6-(3-(dimethylamino)azetidin-1-yl)pyridin-3-yl)-7-(1-(((3-fluoropyridin-2-yl)oxy)methyl)-7-azabicyclo[2.2.1]heptan-7-yl)-4-oxo-1,4-dihydroquinoline-3-carboxylic acid]
≤ 1000 |  |  | Cc1cccnc1OC[C@H]1CCCN1c1nc2c(cc1F)c(=O)c(C(=O)O)cn2-c1ccc(O)cc1 [Compound 133, (R)-6-fluoro-1-(4-hydroxy-phenyl)-7-(2-(((3-methylpyridin-2-yl)oxy)methyl)pyrrolidin-1-yl)-4-oxo-1,4-dihydro-1,8-naphthyridine-3-carboxylic acid]
10000 to 50000 |  |  | CC1(n2cc(C(=O)O)c(=O)c3cc(Cl)c(N4CCC4COc4ccccn4)cc32)CC1 (stereo not drawn) [Compound 108, 6-chloro-1-(1-methyl-cyclopropyl)-4-oxo-7-(2-((pyridin-2-yloxy)methyl)azetidin-1-yl)-1,4-dihydro-quinoline-3-carboxylic acid]
1000 to 10000 |  |  | O=C(O)c1cn(C2CC2)c2c(F)c(N3CCC[C@@H]3COc3ccccn3)c(F)cc2c1=O [Compound 79, (R)-1-cyclopropyl-6,8-difluoro-4-oxo-7-(2-((pyridin-2-yloxy)methyl)pyrrolidin-1-yl)-1,4-dihydro-quinoline-3-carboxylic acid]
 | ≤ 1000 |  | O=C(O)c1cn(-c2cc3cc[nH]c3cc2F)c2cc(N3CCC[C@@H]3COc3ncccc3Cl)c(Cl)cc2c1=O [Example 505, (R)-6-chloro-7-(2-(((3-chloropyridin-2-yl)oxy)methyl)pyrrolidin-1-yl)-1-(6-fluoro-1H-indol-5-yl)-4-oxo-1,4-dihydroquinoline-3-carboxylic acid]
 | ≤ 1000 |  | COc1ccc(Cl)c(OC[C@H]2CC(C)(C)CN2c2cc3c(cc2Cl)c(=O)c(C(=O)O)cn3-c2ccc(N)nc2)n1 [Example 649, (R)-1-(6-aminopyridin-3-yl)-6-chloro-7-(2-(((3-chloro-6-methoxypyridin-2-yl)oxy)methyl)-4,4-dimethylpyrrolidin-1-yl)-4-oxo-1,4-dihydroquinoline-3-carboxylic acid]
 | ≤ 1000 |  | N#Cc1cc2c(=O)c(C(=O)O)cn(-c3cnn(CCN4CCC4)c3)c2cc1N1CCC[C@@H]1COc1ncccc1Cl [Example 571, (R)-1-(1-(2-(azetidin-1-yl)ethyl)-1H-pyrazol-4-yl)-7-(2-(((3-chloropyridin-2-yl)oxy)methyl)pyrrolidin-1-yl)-6-cyano-4-oxo-1,4-dihydroquinoline-3-carboxylic acid]
1000 to 10000 |  |  | O=C(O)c1cn(-c2ccc(O)cc2)c2cc(N3CCC[C@@H]3COc3ccccc3Cl)c(F)cc2c1=O [Compound 107, (R)-7-(2-((2-chlorophenoxy)methyl)pyrrolidin-1-yl)-6-fluoro-1-(4-hydroxy-phenyl)-4-oxo-1,4-dihydro-quinoline-3-carboxylic acid]
 | 1000 to 10000 |  | O=C(O)c1cn(-c2ccc(O)cc2Cl)c2cc(N3CCC[C@@H]3COc3ccccn3)c(F)cc2c1=O [Example 384, (R)-1-(2-chloro-4-hydroxyphenyl)-6-fluoro-4-oxo-7-(2-((pyridin-2-yloxy)methyl)pyrrolidin-1-yl)-1,4-dihydroquinoline-3-carboxylic acid]
 | ≤ 1000 |  | CN(C)C1CN(c2ccc(-n3cc(C(=O)O)c(=O)c4cc(Cl)c(N5CCC[C@H]5COc5ncccc5Cl)cc43)cn2)C1 [Example 517, (S)-6-chloro-7-(2-(((3-chloropyridin-2-yl)oxy)methyl)pyrrolidin-1-yl)-1-(6-(3-(dimethylamino)azetidin-1-yl)pyridin-3-yl)-4-oxo-1,4-dihydroquinoline-3-carboxylic acid]
 |  | IC50 [3]: ≤ 1000 nM | CN(C)C1CN(c2ccc(-n3cc(C(=O)O)c(=O)c4cc(Cl)c(N5CC(C6CCC6)C[C@@H]5COc5ncccc5Cl)cc43)cn2)C1 (stereo partly drawn) [Example 63, 6-chloro-7-((2R)-2-(((3-chloropyridin-2-yl)oxy)methyl)-4-cyclobutylpyrrolidin-1-yl)-1-(6-(3-(dimethylamino)azetidin-1-yl)pyridin-3-yl)-4-oxo-1,4-dihydroquinoline-3-carboxylic acid]
> 50000 |  |  | CC1(n2cc(C(=O)O)c(=O)c3cc(Cl)c(N4C(=O)CC[C@H]4COc4ccccn4)cc32)CC1 [Compound 288, (S)-6-chloro-1-(1-methylcyclo-propyl)-4-oxo-7-(2-oxo-5-((pyridin-2-yloxy)methyl)pyrrolidin-1-yl)-1,4-dihydro-quinoline-3-carboxylic acid]
 | ≤ 1000 |  | Cn1ccnc1OC[C@H]1CCCN1c1cc2c(cc1Cl)c(=O)c(C(=O)O)cn2-c1ccc(N2CCC2)nc1 [Example 501, (R)-1-(6-(azetidin-1-yl)pyridin-3-yl)-6-chloro-7-(2-(((1-methyl-1H-imidazol-2-yl)oxy)methyl)pyrrolidin-1-yl)-4-oxo-1,4-dihydroquinoline-3-carboxylic acid]
 |  | IC50 [3]: > 50000 nM | Cc1c(F)c(N2CCC[C@@H]2COc2ccccn2)cc2c1c(=O)c(C(=O)O)cn2C1CC1 [Example 1, (R)-1-cyclopropyl-6-fluoro-5-methyl-4-oxo-7-(2-((pyridin-2-yloxy)methyl)pyrrolidin-1-yl)-1,4-dihydroquinoline-3-carboxylic acid]
 | ≤ 1000 |  | O=C(O)c1cn(-c2cnccn2)c2cc(N3C[C@H](F)C[C@@H]3COc3ncccc3Cl)c(Cl)cc2c1=O [Example 590, 6-chloro-7-((2R,4R)-2-(((3-chloropyridin-2-yl)oxy)methyl)-4-fluoropyrrolidin-1-yl)-4-oxo-1-(pyrazin-2-yl)-1,4-dihydroquinoline-3-carboxylic acid]
 | ≤ 1000 |  | CN(C)C1CN(c2ccc(-n3cc(C(=O)O)c(=O)c4cc(F)c(N5CCC[C@@H]5COc5ncccc5Cl)c(F)c43)cn2)C1 [Example 613]
